Data published in PubChem BioAssay AID328 (DTP/NCI, 2004).
Values joined by “and” are separate entries in the source; they are usually repeats but may differ in a detail not shown here. Equal values may be shown once. Toxic doses and inconclusive results are not listed. Rule for the calls: active = survival T/C of 150% or more; inactive = T/C below 125% in these data.

System: BDF1 mice, P388 leukemia ip, median survival T/C
Assay: NCI In Vivo Anticancer Drug Screen. Data for tumor model P388 Leukemia (intraperitoneal) in B6D2F1 (BDF1) mice
Settings: endpoint: median survival time, higher = longer survival
How it was run: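 Transplantable tumour in mice; compound vs vehicle dosing; survival scored; ratio of treated to control reported.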

[1] = dose: 6.25 mg/kg/injection, schedule: Q01DX009 (ip), vehicle: saline
[2] = dose: 12.5 mg/kg/injection, schedule: Q01DX009 (ip), vehicle: saline
[3] = dose: 25.0 mg/kg/injection, schedule: Q01DX009 (ip), vehicle: saline
[4] = dose: 25.0 mg/kg/injection, schedule: Q04DX003 (ip), vehicle: saline
[5] = dose: 50.0 mg/kg/injection, schedule: Q01DX009 (ip), vehicle: saline
[6] = dose: 100.0 mg/kg/injection, schedule: Q01DX009 (ip), vehicle: saline
[7] = dose: 100.0 mg/kg/injection, schedule: Q04DX003 (ip), vehicle: Klucel (hydroxypropylcellulose) (HPC)
[8] = dose: 200.0 mg/kg/injection, schedule: Q04DX003 (ip), vehicle: Klucel (hydroxypropylcellulose) (HPC)
[9] = dose: 400.0 mg/kg/injection, schedule: Q04DX003 (ip), vehicle: Klucel (hydroxypropylcellulose) (HPC)
[10] = dose: 50.0 mg/kg/injection, schedule: Q01DX009 (ip), vehicle: saline with Tween-80
[11] = dose: 100.0 mg/kg/injection, schedule: Q01DX009 (ip), vehicle: saline with Tween-80
[12] = dose: 100.0 mg/kg/injection, schedule: Q04DX003 (ip), vehicle: saline with Tween-80
[13] = dose: 200.0 mg/kg/injection, schedule: Q01DX009 (ip), vehicle: saline with Tween-80
[14] = dose: 200.0 mg/kg/injection, schedule: Q04DX003 (ip), vehicle: saline with Tween-80
[15] = dose: 100.0 mg/kg/injection, schedule: Q04DX003 (ip), vehicle: saline
[16] = dose: 50.0 mg/kg/injection, schedule: Q01DX005 (ip), vehicle: saline with Tween-80
[17] = dose: 100.0 mg/kg/injection, schedule: Q01DX005 (ip), vehicle: saline with Tween-80
[18] = dose: 200.0 mg/kg/injection, schedule: Q01DX005 (ip), vehicle: saline with Tween-80

Measured: T/C

O=C(CBr)Nc1nccs1
inactive: dose: 1.56 mg/kg/injection, schedule: Q01DX009 (ip), vehicle: saline 100 % of control | dose: 3.12 mg/kg/injection, schedule: Q04DX003 (ip), vehicle: saline 95 % of control | [1] 97 % of control | dose: 6.25 mg/kg/injection, schedule: Q04DX003 (ip), vehicle: saline 94 % of control and 102 % of control | [2] 90 % of control | dose: 12.5 mg/kg/injection, schedule: Q04DX003 (ip), vehicle: saline 91 % of control and 97 % of control | [3] 97 % of control | [4] 91 % of control and 97 % of control and 100 % of control | [5] 104 % of control

COc1cc2c(cc1OC)C(=O)CN(S(=O)(=O)c1ccc(C)cc1)CC2
inactive: [3] 95 % of control | [5] 104 % of control | [6] 104 % of control | [7] 100 % of control | [8] 95 % of control | [9] 95 % of control

COc1cc2c(cc1OC)C(NC(C)=O)N(C)c1c-2ccc2cc3c(cc12)OCO3 (configuration not stated)
inactive: dose: 80.0 mg/kg/injection, schedule: Q01DX009 (ip), vehicle: saline 104 % of control | dose: 120.0 mg/kg/injection, schedule: Q01DX009 (ip), vehicle: saline 100 % of control
active: dose: 40.0 mg/kg/injection, schedule: Q01DX009 (ip), vehicle: saline 168 % of control

C=CC(=O)NCNC(=O)C=C
active: dose: 300.0 mg/kg/injection, schedule: Q04DX003 (ip), vehicle: saline with Tween-80 222 % of control
inactive: dose: 132.0 mg/kg/injection, schedule: Q04DX003 (ip), vehicle: saline with Tween-80 118 % of control

CCCCNC(C)(C)C(SSSC(c1cccs1)C(C)(C)NCCCC)c1cccs1 (configuration not stated)
inactive: dose: 44.0 mg/kg/injection, schedule: Q04DX003 (ip), vehicle: saline with Tween-80 113 % of control | [10] 118 % of control | dose: 66.0 mg/kg/injection, schedule: Q04DX003 (ip), vehicle: saline with Tween-80 100 % of control | [11] 122 % of control | [12] 118 % of control | dose: 150.0 mg/kg/injection, schedule: Q04DX003 (ip), vehicle: saline with Tween-80 109 % of control | [13] 118 % of control | [14] 118 % of control | dose: 400.0 mg/kg/injection, schedule: Q04DX003 (ip), vehicle: saline with Tween-80 122 % of control

Cc1cc(NS(=O)(=O)c2ccccc2)ccc1NS(=O)(=O)c1ccccc1
inactive: dose: 75.0 mg/kg/injection, schedule: Q01DX009 (ip), vehicle: Klucel (hydroxypropylcellulose) (HPC) 87 % of control | [7] 104 % of control | dose: 150.0 mg/kg/injection, schedule: Q01DX009 (ip), vehicle: Klucel (hydroxypropylcellulose) (HPC) 100 % of control | [8] 100 % of control | dose: 300.0 mg/kg/injection, schedule: Q01DX009 (ip), vehicle: Klucel (hydroxypropylcellulose) (HPC) 87 % of control | [9] 95 % of control

O=C1CCC(=O)N1CO
inactive: [4] 109 % of control | dose: 44.0 mg/kg/injection, schedule: Q04DX003 (ip), vehicle: saline 95 % of control | dose: 50.0 mg/kg/injection, schedule: Q04DX003 (ip), vehicle: saline 104 % of control | dose: 66.0 mg/kg/injection, schedule: Q04DX003 (ip), vehicle: saline 109 % of control | [15] 118 % of control
active: dose: 300.0 mg/kg/injection, schedule: Q04DX003 (ip), vehicle: saline 159 % of control

CCSc1ncnc2c1ncn2C1OC(CO)C(O)C1O (configuration not stated)
inactive: [10] 95 % of control | [11] 117 % of control | [13] 91 % of control

CC(=O)C(C(C)=O)C(Cl)C(C(C)=O)C(C)=O
inactive: [16] 99 % of control | [17] 92 % of control | [18] 99 % of control

CO[C@H](C)[C@](O)(C(=O)OCC1=CC[N+]2([O-])CC[C@H](O)[C@@H]12)C(C)C (some centres not stated)
inactive: dose: 40.0 mg/kg/injection, schedule: Q01DX010 (ip), vehicle: saline 100 % of control | dose: 80.0 mg/kg/injection, schedule: Q01DX010 (ip), vehicle: saline 105 % of control | dose: 160.0 mg/kg/injection, schedule: Q01DX010 (ip), vehicle: saline 116 % of control | dose: 200.0 mg/kg/injection, schedule: Q01DX007 (ip), vehicle: water 117 % of control | dose: 400.0 mg/kg/injection, schedule: Q01DX007 (ip), vehicle: water 119 % of control | dose: 800.0 mg/kg/injection, schedule: Q01DX007 (ip), vehicle: water 119 % of control | dose: 1600.0 mg/kg/injection, schedule: Q01DX007 (ip), vehicle: water 94 % of control

CCOP(=S)(OCC)Oc1cnn(C)c(=S)c1Cl
inactive: [16] 98 % of control | [17] 101 % of control | [18] 108 % of control

O=C(O)c1cc(Br)c(Br)s1
inactive: dose: 50.0 mg/kg/injection, schedule: Q04DX003 (ip), vehicle: saline with Tween-80 91 % of control | [12] 100 % of control | [14] 112 % of control

CCCC(C)C(C)CC (configuration not stated)
inactive: dose: 6.25 mg/kg/injection, schedule: Q01DX001 (ip), vehicle: saline with Tween-80 91 % of control | dose: 12.5 mg/kg/injection, schedule: Q01DX001 (ip), vehicle: saline with Tween-80 104 % of control | dose: 25.0 mg/kg/injection, schedule: Q01DX001 (ip), vehicle: saline with Tween-80 116 % of control

COc1cc(OC)c2c(O)c3c(c(-c4ccc5cc6c(c(O)c5c4O)C(=O)CC(C)(O)C6)c2c1)CC(C)OC3C (configuration not stated)
inactive: dose: 0.19 mg/kg/injection, schedule: Q01DX009 (ip), vehicle: olive oil, sesame oil, peanut oil 106 % of control | dose: 0.39 mg/kg/injection, schedule: Q01DX009 (ip), vehicle: olive oil, sesame oil, peanut oil 91 % of control | dose: 0.78 mg/kg/injection, schedule: Q01DX009 (ip), vehicle: olive oil, sesame oil, peanut oil 106 % of control | dose: 1.56 mg/kg/injection, schedule: Q01DX009 (ip), vehicle: olive oil, sesame oil, peanut oil 102 % of control and 111 % of control

Cc1ccc(NCCN(C)C)c2c(=O)c3ccccc3sc12
active: dose: 100.0 mg/kg/injection, schedule: Q04DX003 (ip), vehicle: alcohol 155 % of control | [15] 168 % of control and 170 % of control | dose: 150.0 mg/kg/injection, schedule: Q04DX003 (ip), vehicle: saline 205 % of control
inactive: [1] 96 % of control | dose: 12.0 mg/kg/injection, schedule: Q04DX003 (ip), vehicle: saline 105 % of control | [2] 103 % of control | dose: 19.0 mg/kg/injection, schedule: Q04DX003 (ip), vehicle: saline 120 % of control | [3] 107 % of control | dose: 200.0 mg/kg/injection, schedule: Q04DX003 (ip), vehicle: alcohol 100 % of control

Cc1ccc(-n2nnc3ccccc3c2=O)cc1C
inactive: [6] 109 % of control | [15] 100 % of control | dose: 200.0 mg/kg/injection, schedule: Q01DX009 (ip), vehicle: saline 90 % of control | dose: 200.0 mg/kg/injection, schedule: Q04DX003 (ip), vehicle: saline 104 % of control | dose: 400.0 mg/kg/injection, schedule: Q01DX009 (ip), vehicle: saline 113 % of control | dose: 400.0 mg/kg/injection, schedule: Q04DX003 (ip), vehicle: saline 100 % of control
